Reference: patent publication US5063247A, “Diphenylurea derivatives” (Mitsubishi Kasei Corporation, priority 1989, dated 1991)

Assays:
cholesterol in serum [1] = assay: Effect of reducing lipid level in blood: percent inhibition of cholesterol in serum of hamsters fed 1% cholesterol and 0.5% cholic acid diet; assay type: in vivo, Male golden Syrian hamsters; details: Mesocricetus auratus, po, 120 h, orally once a day for 5 days, relative to control group
Experimental: The effect of reducing a lipid level in blood by the action of the compounds according to the present invention was determined as follows:
Male golden Syrian hamsters weighing from 80 to 100 g were randomly divided into groups. The hamsters were first fed standard laboratory diets (solid feed MF-1 for mouse/rat/hamster, manufactured by Oriental Yeast Industries, KK) for 3 days. Then, they were fed the experimental diet containing 1% cholesterol and 0.5% cholic acid (manufactured by Oriental Yeast Industries, KK), ad libitum. At the same time, the compounds of the invention formulated in a shown dose (25 mg or 50 mg/10 ml water/kg) were administrated to the animals orally once a day at a determined time for 5 days. Water was administrated orally to the hamsters of control group in an amount of 10 ml per 1 kg of body weight. After five days of administrating the compounds, they were anesthetized with Pentobarbital Na (Nembutal injection, manufactured by Dainabbot) and three hours after the final administration of the test compound, a blood samples (2-3 ml) was taken from abdominal cava. The serum was separated by centrifuging.
The cholesterol level in the serum was determined by using a blood cholesterol measuring kit, Determina-TC5 manufactured by Kyowa Medix Co. The results are represented by percent inhibition (%) of cholesterol level in serum relative to that of the control group, and shown in the following Table 4, each compound number corresponding to that in the above Table 3.

[2] = molecular target: ACAT (acyl coenzyme cholesterol acyltransferase); assay: ACAT inhibitory action in hamster microsomes (cholesteryl-[14C] oleate formation); assay type: biochemical; details: radio-labelled oleoyl coenzyme A
Experimental: The ACAT inhibitory action of the compounds according to the present invention was measured as follows:
ACAT activity in the hamster microsomes was determined by measuring the rate of radio-active cholesteryl-[^14 C] oleate formation from cholesterol and radio-labelled oleoyl coenzyme A (^14 C) with or without test compound.
Calculations of IC50 value were made using data of the percent inhibition at each compound concentration. The results are shown in the following Table 5, each compound number corresponding to that in Table 3.

Acute toxicity test = details: rat, in vivo, po; P.O., suspended in 1% tragacanth solution, SD male and female rats, seven day observation
Description: A compound according to the present invention suspended in a 1% tragacanth solution was administrated orally to SD male and female rats. Then, the number of fatal rats was counted during seven day observation. The LD50 value is shown in the following Table 6, the compound number corresponding to that in the above Table 3.

cholesterol in serum [3] = assay: Effect of reducing lipid level in blood: percent inhibition of cholesterol in serum of hamsters fed 1% cholesterol and 0.5% cholic acid diet; assay type: in vivo, Male golden Syrian hamsters; details: Mesocricetus auratus, po, 120 h, orally once a day for 5 days, relative to control group; remark: listed apart in the source

Row | IC50 [2] [nM] | SMILES | inhibition in vivo at 25 mg/kg (cholesterol in serum [1]) [%] | LD50 at 168 h (Acute toxicity test) [mg/kg] | inhibition in vivo at 5 mg/kg (cholesterol in serum [3]) [%]
1 | – | CCCCCCCCc1ccc(NC(=O)Nc2c(Cl)cccc2Cl)cc1 [Compound No. 2, 1-(4-octylphenyl)-3-(2,6-dichlorophenyl)urea] | 49 | – | –
2 | – | CCCCCCCCc1ccc(NC(=O)Nc2c(OC)cccc2OC)cc1 [compound 12] | 54 | – | –
3 | – | CCCCCCCCc1ccc(NC(=O)Nc2c(Cl)ccc(C)c2Cl)cc1 [compound 11] | 47 | – | –
4 | – | CCCCCCCCc1ccccc1NC(=O)Nc1c(C(C)C)cccc1C(C)C [compound 13] | 54 | – | –
5 | 6 | CCCCCCCc1ccc(NC(=O)Nc2c(C(C)C)cccc2C(C)C)cc1 [compound 18] | 49 | – | –
6 | 11 | CCCCCCc1ccc(NC(=O)Nc2c(C(C)C)cccc2C(C)C)cc1 [compound 17] | 60 | – | –
7 | – | CC(C)c1cccc(C(C)C)c1NC(=O)Nc1ccc(C(C)(C)C)cc1 [Compound No. 26, reference compound] | 19 | – | –
8 | – | CCCCCCCCc1ccc(NC(=O)Nc2c(CC)cccc2CC)cc1 [compound 7] | 48 | – | –
9 | 12 | CCCCCCCCCCc1ccc(NC(=O)Nc2c(C(C)C)cccc2C(C)C)cc1 [compound 20] | 59 | – | –
10 | – | CCCCCCCCc1ccc(NC(=O)Nc2c(Br)cccc2Br)cc1 [compound 4] | 55 | – | –
11 | – | CCCCCCCCc1ccc(NC(=O)Nc2c(C)cccc2C)cc1 [compound 5] | 44 | – | –
12 | 10 | CCCCCCCCCc1ccc(NC(=O)Nc2c(C(C)C)cccc2C(C)C)cc1 [Compound No. 19, 1-(4-nonylphenyl)-3-(2,6-diisopropylphenyl)urea] | 64 | – | –
13 | – | CCCCCc1ccc(NC(=O)Nc2c(C(C)C)cccc2C(C)C)cc1 [compound 16] | 34 | – | –

Row | SMILES | IC50 [2] [nM] | inhibition in vivo at 25 mg/kg (cholesterol in serum [1]) [%] | LD50 at 168 h (Acute toxicity test) [mg/kg] | inhibition in vivo at 5 mg/kg (cholesterol in serum [3]) [%]
14 | CCCCCCCCc1ccc(NC(=O)Nc2c(C(C)C)cccc2C(C)C)cc1 [Compound No. 8] | 4 | 55 | > 2000 | 35
